From patent US8859541B2, “6-alkynylpyridines” (Boehringer Ingelheim International GmbH, priority 2012, dated 2014) come the findings set out here.

In one assay the target is T1, XIAP BIR3 (Homo sapiens, UniProt P98170).
T1 construct: covering amino acids 241 to 356; XIAP BIR3; made in house; host or cells: E. coli
Kind of assay: XIAP BIR3 binding assay (DELFIA), displacement of SMAC peptide. The following applies: GST-fusion BIR3 domain (aa 241 to 356) 10 nM, SMAC peptide 10 nM; activity of the (S)-isomers. The method, boiled down: (§1)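 Each BIR3 domain (10 nM) incubated with biotinylated N-terminal SMAC peptide (10 nM) and compound for 1 h at room temp in Tris/NaCl buffer with BSA, DTT and Triton X-100. Captured on streptavidin plates; bound BIR3 detected by Eu-labelled anti-GST time-resolved fluorescence, giving IC50 values.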

The target in a further assay is T2, cIAP1 BIR3 (Homo sapiens, UniProt Q13490).
T2 construct: covering amino acids 256 to 363; cIAP1 BIR3; made in house; host or cells: E. coli
Briefly: cIAP1 BIR3 binding assay (DELFIA), displacement of SMAC peptide. The following applies: GST-fusion BIR3 domain (aa 256 to 363) 10 nM, SMAC peptide 10 nM; activity of the (S)-isomers. The method, boiled down: as §1

T2 sequence (Q13490 256-363): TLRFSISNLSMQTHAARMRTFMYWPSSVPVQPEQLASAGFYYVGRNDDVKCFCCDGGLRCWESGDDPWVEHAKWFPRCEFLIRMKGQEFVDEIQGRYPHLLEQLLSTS
T1 sequence (P98170 241-356): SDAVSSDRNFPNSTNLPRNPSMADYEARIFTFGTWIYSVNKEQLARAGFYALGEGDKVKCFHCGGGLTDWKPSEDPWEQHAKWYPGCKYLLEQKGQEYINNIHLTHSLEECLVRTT

In the case of `CNC(C)C(=O)Nc1ccc(-c2cc(C(=O)OC)cc(C(=O)OC)c2)c(C#Cc2ccccc2)n1` (stereo not drawn) [Example 176, dimethyl 5-[6-[[2-(methylamino)-propanoyl]amino]-2-(2-phenyl-ethynyl)pyridin-3-yl]benzene-1,3-dicarboxylate], the IC50 came out at 50 nM on XIAP BIR3 and 23 nM on cIAP1 BIR3.

As for `CNC(C)C(=O)Nc1ccc(-c2ccc3c(c2)C(=O)c2ccccc2-3)c(C#Cc2ccccc2)n1` (stereo not drawn) [Example 177, 2-(methylamino)-N-[5-(9-oxofluoren-2-yl)-6-(2-phenyl-ethynyl)pyridin-2-yl]propanamide], the 50% inhibitory concentration (IC50) amounted to 337 nM on XIAP BIR3 and 92 nM on cIAP1 BIR3.

`CNC(=O)c1ccc(-c2ccc(NC(=O)C(C)NC)nc2C#Cc2ccccc2)cn1` (stereo not drawn) [Example 182, N-methyl-5-[6-[[2-(methyl-amino)propanoyl]amino]-2-(2-phenylethynyl)pyridin-3-yl]-pyridine-2-carboxamide]: the IC50 is 135 nM on XIAP BIR3 and 36 nM on cIAP1 BIR3.

With `CNC(C)C(=O)Nc1ccc(-c2nnc(Cl)c3ccccc23)c(C#Cc2ccccc2)n1` (stereo not drawn) [Example 184, N-[5-(4-chlorophthalazin-1-yl)-6-(2-phenylethynyl)pyridin-2-yl]-2-(methylamino)propanamide], the IC50 at XIAP BIR3 was 138 nM; on cIAP1 BIR3, 17 nM.

Turning to `CNC(C)C(=O)Nc1ccc(-c2c(-c3ccncc3)nc3cc(C)ccn23)c(C#Cc2ccccc2)n1` (stereo not drawn) [Example 185, 2-(methylamino)-N-[5-(7-methyl-2-pyridin-4-ylimidazo[1,2-a]-pyridin-3-yl)-6-(2-phenyl-ethynyl)pyridin-2-yl]propanamide], the IC50 at XIAP BIR3 stood at 16 nM; on cIAP1 BIR3, 1 nM.

As for `CNC(C)C(=O)Nc1ccc(-c2sc(C)nc2C)c(C#Cc2ccccc2)n1` (stereo not drawn) [Example 186, N-[5-(2,4-dimethyl-1,3-thiazol-5-yl)-6-(2-phenylethynyl)pyridin-2-yl]-2-(methylamino)propanamide], the IC50 on XIAP BIR3 is 151 nM; at cIAP1 BIR3, 16 nM.

`CNC(C)C(=O)Nc1ccc(-c2ccc3ncn(C)c(=O)c3c2)c(C#Cc2ccccc2)n1` (stereo not drawn) [Example 187, 2-(methylamino)-N-[5-(3-methyl-4-oxoquinazolin-6-yl)-6-(2-phenylethynyl)pyridin-2-yl]-propanamide]: the IC50 at XIAP BIR3 was determined as 49 nM; at cIAP1 BIR3, 9 nM.

Turning to `CNC(C)C(=O)Nc1ccc(-c2cnn(C)c2C)c(C#Cc2ccccc2)n1` (stereo not drawn) [Example 189, N-[5-(1,5-dimethylpyrazol-4-yl)-6-(2-phenylethynyl)pyridin-2-yl]-2-(methylamino)propanamide], the figures for the IC50 on XIAP BIR3 and at cIAP1 BIR3 were 87 nM and 30 nM, respectively.

With `CNC(C)C(=O)Nc1ccc(-c2cnc(N3CCN(C)CC3)nc2)c(C#Cc2ccccc2)n1` (stereo not drawn) [Example 191, 2-(methylamino)-N-[5-[2-(4-methylpiperazin-1-yl)pyrimidin-5-yl]-6-(2-phenylethynyl)pyridin-2-yl]propanamide], the IC50 at XIAP BIR3 was determined as 102 nM; on cIAP1 BIR3, 22 nM.

For the compound `CNC(C)C(=O)Nc1ccc(-c2cnc(-n3ccnc3)nc2)c(C#Cc2ccccc2)n1` (stereo not drawn) [Example 192, N-[5-(2-imidazol-1-ylpyrimidin-5-yl)-6-(2-phenylethynyl)pyridin-2-yl]-2-(methylamino)propan-amide], the values for the IC50 on XIAP BIR3 and on cIAP1 BIR3 were 76 nM and 22 nM, respectively.

Turning to `CNC(C)C(=O)Nc1ccc(-c2cnc(C(=O)OC)nc2)c(C#Cc2ccccc2)n1` (stereo not drawn) [Example 194, methyl 5-[6-[[2-(methylamino)-propanoyl]amino]-2-(2-phenyl-ethynyl)pyridin-3-yl]pyrimidine-2-carboxylate], the IC50 at XIAP BIR3 amounted to 102 nM; at cIAP1 BIR3 it was 23 nM.

In the case of `CNC(C)C(=O)Nc1ccc(-c2c(C)ncn2C)c(C#Cc2ccccc2)n1` (stereo not drawn) [Example 195, N-[5-(3,5-dimethylimidazol-4-yl)-6-(2-phenylethynyl)pyridin-2-yl]-2-(methylamino)propanamide], the IC50 amounted to 269 nM on XIAP BIR3 and 4 nM at cIAP1 BIR3.

Take `CNC(C)C(=O)Nc1cc(C(F)(F)F)cc(C#Cc2ccccc2)n1` (stereo not drawn) [Example 198, 2-(methylamino)-N-[6-(2-phenylethynyl)-4-(trifluoromethyl)pyridin-2-yl]propanamide]: the IC50 on XIAP BIR3 was 10500 nM; at cIAP1 BIR3 it was 4930 nM.

For `CC(N)C(=O)Nc1cc2ccccc2c(C#Cc2ccsc2)n1` (stereo not drawn) [Example 203, 2-amino-N-[1-(2-thiophen-3-ylethynyl)isoquinolin-3-yl]propanamide], the IC50 is 760 nM on XIAP BIR3 and 251 nM on cIAP1 BIR3.

Turning to `CC(N)C(=O)Nc1cc2ccccc2c(C#Cc2ccccc2)n1` (stereo not drawn) [Example 204, 2-amino-N-[1-(2-phenyl-ethynyl)isoquinolin-3-yl]-propanamide], the IC50 amounted to 703 nM on XIAP BIR3 and 430 nM on cIAP1 BIR3.

As to `CC(N)C(=O)Nc1cc2ccccc2c(C#Cc2ccccn2)n1` (stereo not drawn) [Example 206, 2-amino-N-[1-(2-pyridin-2-ylethynyl)isoquinolin-3-yl]-propanamide], the IC50 at XIAP BIR3 is 3620 nM; on cIAP1 BIR3, 880 nM.

On to `CC(N)C(=O)Nc1cc2ccccc2c(C#Cc2cccs2)n1` (stereo not drawn) [Example 208, 2-amino-N-[1-(2-thiophen-2-ylethynyl)isoquinolin-3-yl]-propanamide], for which the results for the IC50 at XIAP BIR3 and on cIAP1 BIR3 were 467 nM and 255 nM, respectively.

Consider `CC(N)C(=O)Nc1cccc(C#Cc2cccc(C(=O)N3CCOCC3)c2)n1` (stereo not drawn) [Example 213, 2-amino-N-[6-[2-[3-(morpholine-4-carbonyl)-phenyl]ethynyl]pyridin-2-yl]propanamide], for which the IC50 at XIAP BIR3 turned out to be 9950 nM; at cIAP1 BIR3, 2120 nM.

For the compound `CC(N)C(=O)Nc1cccc(C#Cc2cccnc2)n1` (stereo not drawn) [Example 215, 2-amino-N-[6-(2-pyridin-3-ylethynyl)pyridin-2-yl]propanamide], the IC50 on XIAP BIR3 turned out to be 9700 nM; at cIAP1 BIR3, 985 nM.

For `CC(N)C(=O)Nc1cccc(C#Cc2cccs2)n1` (stereo not drawn) [Example 217, 2-amino-N-[6-(2-thiophen-2-ylethynyl)pyridin-2-yl]propanamide], the results for the IC50 at XIAP BIR3 and at cIAP1 BIR3 were 895 nM and 206 nM, respectively.

With `COC(=O)c1cccc(C#Cc2cccc(NC(=O)C(C)N)n2)c1` (stereo not drawn) [Example 223, methyl 3-[2-[6-[[2-aminopropanoyl]amino]pyridin-2-yl]ethynyl]benzoate], the IC50 turned out to be 2460 nM on XIAP BIR3 and 2620 nM on cIAP1 BIR3.

In the case of `CC(N)C(=O)Nc1cc2ccccc2c(C#Cc2cscn2)n1` (stereo not drawn) [Example 226, 2-amino-N-[1-[2-(1,3-thiazol-4-yl)ethynyl]isoquinolin-3-yl]propanamide], the figures for the IC50 on XIAP BIR3 and on cIAP1 BIR3 were 1200 nM and 332 nM, respectively.

As to `Cc1cc(C)cc(C#Cc2nc(NC(=O)C(C)N)cc3ccccc23)c1` (stereo not drawn) [Example 228, 2-amino-N-[1-[2-(3,5-dimethyl-phenyl)ethynyl]isoquinolin-3-yl]propanamide], the concentration for half-maximal inhibition (IC50) at XIAP BIR3 was 1920 nM; at cIAP1 BIR3, 1470 nM.

`CC(N)C(=O)Nc1cc2ccccc2c(C#Cc2cc(F)cc(F)c2)n1` (stereo not drawn) [Example 229, 2-amino-N-[1-[2-(3,5-difluorophenyl)ethynyl]-isoquinolin-3-yl]propanamide]: the IC50 at XIAP BIR3 came to 2420 nM; at cIAP1 BIR3, 589 nM.

Turning to `Cc1ccccc1C#Cc1cccc(NC(=O)C(C)N)n1` (stereo not drawn) [Example 232, 2-amino-N-[6-[2-(2-methylphenyl)ethynyl]pyridin-2-yl]propanamide], the IC50 at XIAP BIR3 was 1250 nM; at cIAP1 BIR3 it was 672 nM.

In the case of `CC(N)C(=O)Nc1cccc(C#Cc2ccc3cc[nH]c3c2)n1` (stereo not drawn) [Example 234, 2-amino-N-[6-[2-(1H-indol-6-yl)ethynyl]pyridin-2-yl]propanamide], the IC50 is 2730 nM at XIAP BIR3 and 1230 nM on cIAP1 BIR3.

As for `CC(N)C(=O)Nc1cccc(C#Cc2ccoc2)n1` (stereo not drawn) [Example 240, 2-amino-N-[6-[2-(furan-3-yl)ethynyl]pyridin-2-yl]propanamide], the IC50 at XIAP BIR3 came out at 3020 nM; at cIAP1 BIR3, 1340 nM.

As usually defined, the IC50 is the concentration that inhibits the measured activity by half. A higher IC50 goes with weaker potency in that assay.
